This is an account of results in PubChem BioAssay (NCI).

Some test systems named below: COLO 205 colon; SF-268 CNS; SK-MEL-2 melanoma; UACC-62 melanoma.
What all share (assay): DTP human tumour cell line panel, 48 h

Each structure is given as a SMILES string.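 Method: 48-hour compound exposure of cells in 96-well plates, five concentrations, linear interpolation of endpoints. Definition used: TGI = concentration required for complete inhibition of growth.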

The TGI is the concentration giving total growth inhibition. Low values mean more potent growth arrest, high ones less potent growth arrest. In the case of `Cc1ccc([N+](=O)[O-])cc1S(=O)(=O)Nc1ccc(C2=NN(c3ccc([N+](=O)[O-])cc3[N+](=O)[O-])C(c3cccs3)C2)cc1` (configuration not stated), the values for the TGI with COLO 205 colon, in the test with SF-268 CNS and in the test on SK-MEL-2 melanoma were 54.5 µM, 69.9 µM and 32.7 µM, respectively.

In the case of `c1ccc2c(c1)CC1=C(O2)c2ccccc2OC1`, the TGI in the test with COLO 205 colon was 38.3 µM; with SF-268 CNS, > 100 µM; with SK-MEL-2 melanoma, 70.3 µM; with UACC-62 melanoma, 92.8 µM.

In the case of `CCOC(=O)CCCNC(=O)CCCCC(=O)N(C)C`, the TGI in the test with COLO 205 colon, with SF-268 CNS, with SK-MEL-2 melanoma and in the test on UACC-62 melanoma was > 100 µM each time.

Regarding `Cc1nc(-c2cc3c(ccc4ccccc43)oc2=O)cs1`, the TGI in the test on COLO 205 colon, in the test with SF-268 CNS, in the test on SK-MEL-2 melanoma and with UACC-62 melanoma was > 100 µM in each case.

As for `CCOCc1c(C)cc(C)c(C2C(C(=O)c3ccccc3)N3c4ccccc4C=CC3C2(C#N)C(=O)OCC)c1C` (configuration not stated), the TGI with COLO 205 colon was 53.7 µM; with SF-268 CNS, > 100 µM; with UACC-62 melanoma, > 100 µM.

For `O=C(O)COCC(=O)N(CCOCCN(Cc1ccccc1)C(=O)COCC(=O)O)Cc1ccccc1`, the TGI in the test on COLO 205 colon, with SF-268 CNS, in the test with SK-MEL-2 melanoma and in the test on UACC-62 melanoma was > 100 µM each time.

As to `COC(=O)c1cc(C)ccc1C1CN=NC12Cc1ccc(C)cc1C2=O` (configuration not stated), the TGI in the test with COLO 205 colon was 29.3 µM; in the test on SF-268 CNS, > 100 µM; with SK-MEL-2 melanoma, > 100 µM; in the test on UACC-62 melanoma, > 100 µM.

Take `COC1(C)CP(=O)(OC(C)C)CC(C)=C1Cl` (configuration not stated): the TGI was 30.2 µM with COLO 205 colon, > 100 µM in the test on SF-268 CNS, 45.9 µM in the test on SK-MEL-2 melanoma and 25.6 µM with UACC-62 melanoma.

With `CO/C(N)=C(\C#N)N=Cc1ccco1`, the TGI in the test with COLO 205 colon, in the test on SF-268 CNS, with SK-MEL-2 melanoma and with UACC-62 melanoma was > 100 µM in each case.

As to `COc1cc(/C=N\N(C)C)cc(/C=N/N(C)C)c1O`, the TGI in the test with COLO 205 colon is 46.9 µM; in the test with SF-268 CNS, > 100 µM; in the test on SK-MEL-2 melanoma it was 28.1 µM; with UACC-62 melanoma it was > 100 µM.

As to `Cc1cc2cc3c(cc2c(-c2ccc([N+](=O)[O-])cc2)n1)OCO3`, the TGI with COLO 205 colon is > 100 µM; in the test with SF-268 CNS, > 100 µM; in the test on SK-MEL-2 melanoma it was > 100 µM; in the test on UACC-62 melanoma it was 67.2 µM.

In the case of `COc1ccc(C(=O)c2sc(N(C)C)nc2-c2ccccc2)cc1`, the TGI is > 100 µM with COLO 205 colon, > 100 µM in the test with SF-268 CNS, 76.5 µM with SK-MEL-2 melanoma and > 100 µM in the test on UACC-62 melanoma.

For `CN1CCN(c2ccc3[nH]c(-c4cc(O)c5c(nc(CO)n5C)c4O)nc3n2)CC1`, the TGI with COLO 205 colon is 43.3 µM; with SF-268 CNS, > 100 µM; in the test on SK-MEL-2 melanoma it was 51.7 µM; in the test with UACC-62 melanoma, 27.8 µM.

For `CC(C)(C)C(=O)OCOP(=O)(OCOC(=O)C(C)(C)C)OCC1OC(n2ccc(=O)[nH]c2=O)C(N=[N+]=[N-])C1O` (configuration not stated), the TGI in the test on COLO 205 colon is 13.5 µM; with SF-268 CNS, 17.8 µM; in the test on UACC-62 melanoma, 14.6 µM.

`C/C(Cl)=N/OC(=O)Nc1ccc(S(N)(=O)=O)c(C)c1`: the TGI was 4.14 µM in the test with COLO 205 colon, > 61.3 µM in the test with SF-268 CNS, 33.5 µM in the test on SK-MEL-2 melanoma and 35.6 µM in the test on UACC-62 melanoma.

For the molecule `O=C1c2[nH]c3ccc(Br)cc3c2CCN1Cc1ccc(Cl)cc1`, the total growth inhibition concentration (TGI) in the test with COLO 205 colon was determined as 34.5 µM; in the test with SF-268 CNS, 33.2 µM; in the test with SK-MEL-2 melanoma it was 47.4 µM; in the test on UACC-62 melanoma, 28.2 µM.

With `COc1ccc(/C=C2\CCC(C)C3C2=NN(c2ccccc2)C3c2ccc(OC)c(OC)c2)cc1OC` (configuration not stated), the TGI with COLO 205 colon was found to be 17.2 µM; with SF-268 CNS, 30.4 µM; in the test with SK-MEL-2 melanoma, 7.87 µM; in the test on UACC-62 melanoma, 12.2 µM.

`CCCC/C=C/C/C=C/CCCCCCCCC(=O)OCC1CCCN2CCCCC12` (configuration not stated): the TGI with COLO 205 colon, in the test with SF-268 CNS, in the test on SK-MEL-2 melanoma and in the test on UACC-62 melanoma was > 100 µM each time.

Regarding `C[N+](C)(C)CCCSc1nc2ccccc2[nH]1`, the TGI with COLO 205 colon, with SF-268 CNS, with SK-MEL-2 melanoma and with UACC-62 melanoma was > 100 µM in each case.

`O=c1cc(N2CCNCC2)nc2ccccn12`: the TGI in the test with COLO 205 colon, in the test on SF-268 CNS, in the test with SK-MEL-2 melanoma and in the test on UACC-62 melanoma was > 100 µM each time.

Consider `O=c1[nH]nc(-c2ccccc2)n1-c1ccncc1`, for which the TGI in the test with COLO 205 colon and in the test on SF-268 CNS was > 100 µM throughout.

Turning to `COC(=O)C1=C(O)C(C(=O)OC)[C@]2(O)[C@H](C(=O)OC)[C@H]1C[C@@H](c1ccc(OC)c(OC)c1)[C@H]2C(=O)OC` (some centres not stated), the TGI with COLO 205 colon is 66.3 µM; with SK-MEL-2 melanoma, 99.4 µM; in the test on UACC-62 melanoma, > 100 µM.

As to `CC(=O)c1sc2c(c1OC(=O)c1ccco1)c(=O)n(-c1ccccc1)c(=S)n2-c1ccccc1`, the TGI with COLO 205 colon came out at 37.9 µM; with SF-268 CNS it was 87.2 µM; with SK-MEL-2 melanoma, 39.2 µM.

Turning to `O=[N+]([O-])c1ccc2c(c1)S(=O)(=O)N1Cc3ccccc3CCN21`, the TGI with COLO 205 colon, in the test with SF-268 CNS, with SK-MEL-2 melanoma and in the test with UACC-62 melanoma was > 100 µM throughout.

`O=C(O)C1CCCN(CCc2c[nH]c3ccccc23)C1` (configuration not stated): the TGI in the test on COLO 205 colon, with SF-268 CNS, with SK-MEL-2 melanoma and in the test on UACC-62 melanoma was > 100 µM throughout.

As for `O=C(Cn1c2c(c3ccccc31)CCCC2)N1CCCC1`, the TGI in the test with COLO 205 colon, in the test on SK-MEL-2 melanoma and with UACC-62 melanoma was > 100 µM throughout.

Take `Oc1c2cc(Cl)cc1COCc1cc(Cl)cc(c1O)COCc1cc(Cl)cc(c1O)COC2`: the TGI in the test on COLO 205 colon, in the test with SK-MEL-2 melanoma and with UACC-62 melanoma was > 100 µM each time.

Regarding `O=C1CCC2(c3ccccc3)Nc3ccncc3N12` (configuration not stated), the TGI in the test on SF-268 CNS, in the test on SK-MEL-2 melanoma and in the test on UACC-62 melanoma was > 10 µM each time.

Consider `Nc1nc(Cl)c(CO)c(NCC2(CO)CC(CCc3ccccc3)C2)n1` (configuration not stated), for which the TGI in the test with COLO 205 colon and in the test on SF-268 CNS was > 100 µM each time.

On to `N#CC1C(=O)N(c2ccccc2)NC12OC(=O)c1ccncc12` (configuration not stated), for which the TGI in the test with COLO 205 colon, with SK-MEL-2 melanoma and in the test with UACC-62 melanoma was > 20 µM each time.
